Laboratory results: patent US8758743B2, “Compositions containing coenzyme Q10” (Taiyo Kagaku Co., Ltd., priority 2003, dated 2014)
Where two headings read alike, the source gives them in different places.

What was measured:
[1] = Storage of powder products at 50° C. under light shielding (Test Example 1-1); assay type: physicochemical
Experimental: In addition, the powder products of Examples 1-6 and 1-7 and a coenzyme Q10 itself (manufactured by Kanegafuchi Kagaku Kogyo Kabushiki Kaisha) were used as test samples, and the storage states before the beginning of storage, and after storage at 50° C. for 4 weeks or 12 weeks passed under light shielding were confirmed.

[2] = Bioabsorbability Test 2 of coenzyme Q10 (Test Example 1-4); assay type: in vivo; conditions: male, SD, rat, plasma, po, 5 mg/kg; for concentration at 1 h: 1 hour after administration; for AUC: read-out: AUC1-24
Experimental: The bioabsorbability of a coenzyme Q10 was evaluated by administering each of the coenzyme Q10-containing composition of Example 1-2 and a coenzyme Q10 itself to a rat as a test sample, sampling blood over time, and measuring the coenzyme Q10 concentration in the plasma, and the bioabsorbability was compared among the test samples.
The feeding conditions were set in 2 ways; a case where rats were allowed to take the feed ad libitum (satiation), and a case where rats were made to fast since the early-evening of the previous day of the test, and where the rats were fed again after blood sampling of 8 hours after the administration of the test sample.
The solution of distilled water in Tests A and A′ was prepared by adding the coenzyme Q10-containing composition of Example 1-2 to distilled water and mixing the mixture. The suspension of a 0.5(w/v)% aqueous CMC—Na solution in Tests B and B′ was prepared by adding a coenzyme Q10 itself to a 0.5(w/v)% aqueous CMC-Na solution and subjecting the mixture to ultrasonication.
The conditions and the like for this test are listed hereinbelow. • Rat: SD line, 7-week old, male, n=4 • Dose: The test samples calculated as 5 mg of a coenzyme Q10 per 1 kg of the body weight of a rat were administered. • Amount of administered liquid: The suspension or the solution used in Tests A, A′, B, or B′ was administered in an amount of 5 mL per 1 kg of the body weight of a rat.
Method of administration, blood sampling, time of blood sampling, processing of blood and method of quantification were same as those in the above-mentioned Test Example 1-3.

For COC1=C(OC)C(=O)C(C/C=C(\C)CC/C=C(\C)CC/C=C(\C)CC/C=C(\C)CC/C=C(\C)CC/C=C(\C)CC/C=C(\C)CC/C=C(\C)CC/C=C(\C)CCC=C(C)C)=C(C)C1=O [Coenzyme Q10 Powder, coenzyme Q10], the “Storage State” value ([1]; after 4 weeks) was “Melted”, the “Storage State” value ([1]; after 12 weeks) was “Melted” and the concentration at 1 h ([2]; fasting) was 30 ± 10 ng/mL. The concentration at 2 h ([2]; fasting) was 30 ± 10 ng/mL, the concentration at 4 h ([2]; fasting) was 30 ng/mL and the concentration at 8 h ([2]; fasting) was 30 ± 10 ng/mL. It also gave a concentration at 24 h ([2]; fasting) of 40 ± 110 ng/mL, an AUC ([2]; fasting) of 780 ± 300 ng·h/mL and a concentration at 1 h ([2]; satiation) of 120 ± 70 ng/mL. The concentration at 2 h ([2]; satiation) was 170 ± 110 ng/mL, the concentration at 4 h ([2]; satiation) was 260 ± 90 ng/mL and the concentration at 8 h ([2]; satiation) was 270 ± 90 ng/mL. It also gave a concentration at 24 h ([2]; satiation) of 110 ± 40 ng/mL and an AUC ([2]; satiation) of 4780 ± 1310 ng·h/mL.
